Conditions: Liquid, Vibrating tube method

CCCCCCC [heptane]
mass density [kg/m3]
Conditions | 283.15 K | 288.15 K | 293.15 K | 298.15 K | 303.15 K | 308.15 K | 313.15 K | 318.15 K | 323.15 K | 328.15 K
100 kPa | 692.57 | 688.55 | 684.19 | 679.95 | 675.68 | 671.39 | 667.06 | 662.54 | 658.32 | 653.81
2000 kPa | 694.49 | 690.28 | 686.15 | 682.02 | 677.75 | 673.45 | 669.26 | 664.87 | 660.53 | 656.27
5000 kPa | 697.06 | 693.01 | 688.99 | 684.8 | 680.76 | 676.49 | 672.35 | 668.35 | 664.05 | 659.84
7000 kPa | 698.8 | 694.77 | 690.74 | 686.68 | 682.65 | 678.48 | 674.51 | 670.32 | 666.33 | 661.99
10000 kPa | 701.2 | 697.23 | 693.41 | 689.23 | 685.52 | 681.37 | 677.42 | 673.52 | 669.41 | 665.25
20000 kPa | 709.08 | 705.18 | 701.57 | 697.65 | 694.07 | 690.12 | 686.53 | 682.85 | 679.17 | 675.25
30000 kPa | 716.12 | 712.38 | 708.99 | 705.17 | 701.86 | 698.22 | 694.65 | 691.31 | 687.64 | 684.02
40000 kPa | 722.63 | 719.01 | 715.7 | 712.11 | 708.87 | 705.32 | 702.08 | 698.89 | 695.38 | 691.84
50000 kPa | 728.63 | 725.2 | 722.03 | 718.54 | 715.5 | 712.12 | 708.98 | 705.82 | 702.5 | 699.13
60000 kPa | 734.33 | 731.01 | 728.02 | 724.73 | 721.67 | 718.41 | 715.39 | 712.36 | 709.15 | 706.05
65000 kPa | 736.99 | 733.73 | 730.72 | 727.65 | 724.56 | 721.43 | 718.32 | 715.32 | 712.32 | 709.3

Source: the NIST ThermoML archive (doi:10.1016/j.tca.2015.06.017)
